Assays:
Format in all cases: biochemical
[1] = target: T1, human MMP2 (Homo sapiens, UniProt P08253); assay: Selectivity assay MMP2
T1 construct: human MMP2 (Uniprot P08253), amino acids 1–660; made in house; host or cells: insect cells (baculovirus)
T1 sequence (P08253 30-660): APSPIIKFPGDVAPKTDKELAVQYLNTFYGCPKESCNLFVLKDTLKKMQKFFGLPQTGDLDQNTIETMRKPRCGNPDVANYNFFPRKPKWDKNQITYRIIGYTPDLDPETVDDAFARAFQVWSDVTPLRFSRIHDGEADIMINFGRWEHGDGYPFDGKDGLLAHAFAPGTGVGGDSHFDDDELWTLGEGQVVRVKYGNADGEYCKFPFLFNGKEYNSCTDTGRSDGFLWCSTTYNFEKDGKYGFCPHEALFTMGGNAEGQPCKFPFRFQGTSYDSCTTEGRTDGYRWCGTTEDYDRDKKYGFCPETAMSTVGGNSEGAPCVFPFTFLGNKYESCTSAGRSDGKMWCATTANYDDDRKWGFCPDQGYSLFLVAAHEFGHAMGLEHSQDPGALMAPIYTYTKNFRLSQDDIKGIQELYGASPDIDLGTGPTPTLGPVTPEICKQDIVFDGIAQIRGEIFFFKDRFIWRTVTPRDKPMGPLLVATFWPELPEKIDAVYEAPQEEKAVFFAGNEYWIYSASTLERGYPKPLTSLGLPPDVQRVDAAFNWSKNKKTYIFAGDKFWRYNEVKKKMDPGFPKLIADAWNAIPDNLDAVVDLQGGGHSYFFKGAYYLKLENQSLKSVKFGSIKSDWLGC
Method: (§1) All biochemical assays were performed at room temperature in 384-well plates in a total volume of 25.25 μl per well. Test compounds were dissolved in 90% (v/v) DMSO/water. For the assays, 250 nl of compound solution was added per well, followed by addition of 12.5 μl protease solution. After 70 min of pre-incubation at room temperature, the reactions were started by addition of 12.5 μl substrate solution and followed either by measuring fluorescence intensity (rhodamine 110-based substrates) or by fluorescence lifetime (PT14-based substrates). The effect of compound on enzymatic activity was obtained from the linear part of the progress curves and determined after 1 h (t=60 min). The final compound concentrations ranged from 100 μM to 1 nM.
(§2) Matrix metalloproteinases. Human MMP1 (Uniprot P03956), amino acids 1–469, expressed in and purified from stable transfected C127 cells; human MMP2 (Uniprot P08253), amino acids 1–660, expressed in and purified from insect cells (baculovirus expression system); human MMP8 (Uniprot P22894), amino acids 100–262, expressed in and purified from E. coli; human MMP9 (Uniprot P14780), amino acids 1–707, expressed in and purified from stable transfected 293 cells; human MMP12 (Uniprot P39900), amino acids 101–268, expressed in and purified from E. coli; human MMP13 (Uniprot P45452), amino acids 103–274, expressed in and purified from E. coli; human MMP14 (Uniprot P50281), amino acids 112–284, expressed in and purified from E. coli; human ADAM17 (Uniprot P78536), amino acids 1–670, expressed in and purified from insect cells (baculovirus expression system); substrate: Ac-C(PT14)-[…]-NH2 purchased from Biosyntan (product number 8069); enzyme concentrations: 3 nM (MMP1), 1 nM (MMP2), 3 nM (MMP8), 0.1 nM (MMP9), 0.5 nM (MMP12), 0.13 nM (MMP13), 0.005 nM (MMP14), 30 nM (ADAM17); substrate concentration: 0.8 μM; assay buffer: 100 mM Tris, pH 7.4, 100 mM NaCl, 10 mM CaCl2, 10 μM ZnCl2, 0.075% (v/v) Brij35.

[2] = target: T2, human MMP13 (Homo sapiens, UniProt P45452); assay: Selectivity assay MMP13
T2 construct: human MMP13 (Uniprot P45452), amino acids 103–274; made in house; host or cells: E. coli
Method: as §1, §2

[3] = target: T3, human MMP9 (Homo sapiens, UniProt P14780); assay: Selectivity assay MMP9
T3 construct: human MMP9 (Uniprot P14780), amino acids 1–707; made in house; host or cells: stably transfected 293 cells
T3 sequence (P14780 20-707): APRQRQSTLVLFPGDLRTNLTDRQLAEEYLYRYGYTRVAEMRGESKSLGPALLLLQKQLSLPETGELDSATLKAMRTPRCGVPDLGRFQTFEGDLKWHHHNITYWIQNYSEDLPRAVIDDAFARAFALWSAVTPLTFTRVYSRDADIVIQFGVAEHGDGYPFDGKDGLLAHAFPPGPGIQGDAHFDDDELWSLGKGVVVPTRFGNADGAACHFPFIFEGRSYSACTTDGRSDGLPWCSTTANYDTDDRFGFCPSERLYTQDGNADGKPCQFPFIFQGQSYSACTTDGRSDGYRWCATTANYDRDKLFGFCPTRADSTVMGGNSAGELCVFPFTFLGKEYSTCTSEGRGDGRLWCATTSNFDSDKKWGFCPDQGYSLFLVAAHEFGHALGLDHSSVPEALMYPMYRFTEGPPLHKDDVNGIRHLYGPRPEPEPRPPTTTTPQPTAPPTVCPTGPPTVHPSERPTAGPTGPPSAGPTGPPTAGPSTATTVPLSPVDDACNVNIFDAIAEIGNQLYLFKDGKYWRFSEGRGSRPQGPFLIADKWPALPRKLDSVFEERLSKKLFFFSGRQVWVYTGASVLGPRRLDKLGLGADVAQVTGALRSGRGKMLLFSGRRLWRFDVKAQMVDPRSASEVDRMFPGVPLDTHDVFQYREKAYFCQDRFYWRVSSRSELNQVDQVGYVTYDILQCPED
Method: as §1, §2

[4] = target: T4, human ADAM17 (Homo sapiens, UniProt P78536); assay: Selectivity assay ADAM17
T4 construct: human ADAM17 (Uniprot P78536), amino acids 1–670; made in house; host or cells: insect cells (baculovirus)
T4 sequence (P78536 18-670): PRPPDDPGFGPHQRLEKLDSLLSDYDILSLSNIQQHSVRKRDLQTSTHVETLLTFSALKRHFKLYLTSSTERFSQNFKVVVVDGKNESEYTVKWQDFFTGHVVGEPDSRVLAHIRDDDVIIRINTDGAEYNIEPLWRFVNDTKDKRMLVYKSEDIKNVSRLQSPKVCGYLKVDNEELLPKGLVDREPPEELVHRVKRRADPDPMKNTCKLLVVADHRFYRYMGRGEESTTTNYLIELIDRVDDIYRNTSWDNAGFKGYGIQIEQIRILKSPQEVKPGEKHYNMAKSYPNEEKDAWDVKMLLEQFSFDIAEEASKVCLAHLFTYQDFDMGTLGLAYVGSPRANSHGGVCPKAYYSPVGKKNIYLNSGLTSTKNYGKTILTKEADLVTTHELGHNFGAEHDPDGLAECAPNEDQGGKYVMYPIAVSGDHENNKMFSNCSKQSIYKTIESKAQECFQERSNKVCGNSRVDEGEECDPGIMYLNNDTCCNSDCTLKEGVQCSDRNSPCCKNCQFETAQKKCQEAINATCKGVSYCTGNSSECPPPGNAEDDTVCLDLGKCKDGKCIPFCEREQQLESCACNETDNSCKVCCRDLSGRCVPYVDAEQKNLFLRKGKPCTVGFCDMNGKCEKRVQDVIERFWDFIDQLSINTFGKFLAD
Method: as §1, §2

[5] = target: T5, human MMP14 (Homo sapiens, UniProt P50281); assay: Selectivity assay MMP14
T5 construct: human MMP14 (Uniprot P50281), amino acids 112–284; made in house; host or cells: E. coli
Method: as §1, §2

[6] = target: T6, CSN5 (Homo sapiens, UniProt Q92905); assay: CSN5 activity assay (CSN deneddylation, fluorescence polarization); settings: JAMM domain protease; means±s.d.
T6 construct: made in house; host or cells: Sf21 insect cells, co-infection of separate baculoviruses
Method: Unlike the majority of proteases, it is not active as an individual subunit or as an isolated catalytic domain. […] For the identification of CSN inhibitors, we therefore conducted a high-throughput screening campaign using a biochemical assay with recombinant CSN and a fluorescence-labelled and NEDD8-modified CRL substrate[30][40] (PT22-NEDD8-SCF^Skp2; Supplementary Table 1).
The potency of CSN5 inhibitors was determined in a CSN activity assay using changes in fluorescence polarization as the readout. Reactions were carried out at room temperature in 384-well plates. […] The effect of compound on enzymatic activity was determined from the linear part of the progression curves by an end-point measurement of the fluorescence polarization at 590 nm after excitation at 540 nm using a PHERAstar plate reader (BMG LABTECH GmbH). IC50 values were calculated from the plot of percentage of inhibition versus inhibitor concentration using the non-linear regression analysis software Origin 7.5SR6 (OriginLab Corp.).

[7] = target: T7, human MMP8 (Homo sapiens, UniProt P22894); assay: Selectivity assay MMP8
T7 construct: human MMP8 (Uniprot P22894), amino acids 100–262; made in house; host or cells: E. coli
T7 sequence (P22894 100-262): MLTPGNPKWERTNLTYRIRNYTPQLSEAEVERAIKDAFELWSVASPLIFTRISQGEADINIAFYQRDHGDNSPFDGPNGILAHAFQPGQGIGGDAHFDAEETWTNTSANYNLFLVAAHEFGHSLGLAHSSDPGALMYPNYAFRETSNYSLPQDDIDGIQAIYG
Method: as §1, §2

[8] = target: T8, Human AMSHLP (Homo sapiens, UniProt Q96FJ0); assay: Selectivity assay AMSHLP (ubiquitin-rhodamine110-glycine substrate); settings: JAMM domain protease
T8 construct: made in house; host or cells: E. coli
T8 sequence (Q96FJ0 1-436): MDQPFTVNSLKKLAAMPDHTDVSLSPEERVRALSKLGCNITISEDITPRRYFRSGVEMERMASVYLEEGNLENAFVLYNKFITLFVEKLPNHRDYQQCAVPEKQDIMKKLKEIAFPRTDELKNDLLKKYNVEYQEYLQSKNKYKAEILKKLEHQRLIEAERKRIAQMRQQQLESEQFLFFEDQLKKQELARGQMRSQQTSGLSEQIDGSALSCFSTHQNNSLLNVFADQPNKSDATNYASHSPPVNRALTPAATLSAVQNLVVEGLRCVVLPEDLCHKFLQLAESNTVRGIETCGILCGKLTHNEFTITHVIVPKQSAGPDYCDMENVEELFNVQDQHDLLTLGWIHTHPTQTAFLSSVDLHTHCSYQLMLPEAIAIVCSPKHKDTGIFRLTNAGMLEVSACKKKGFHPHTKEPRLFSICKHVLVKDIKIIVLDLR
Method: as §1
Human AMSHLP. Enzyme was expressed in and purified from E. coli; substrate: ubiquitin-rhodamine110-glycine was purchased from emp Biotech GmbH (Berlin, Germany; product number AS 09/12-A4); enzyme concentration: 4 nM; substrate concentration: 200 nM; assay buffer: 100 mM Tris/HCl at pH 7.5, 10 mM CaCl2, 100 mM NaCl, 10 μM ZnCl2, 0.005% (v/v) BRIJ 35 and 5 mM dithioerythritol (DTE).

[9] = target: T9, human MMP12 (Homo sapiens, UniProt P39900); assay: Selectivity assay MMP12
T9 construct: human MMP12 (Uniprot P39900), amino acids 101–268; made in house; host or cells: E. coli
T9 sequence (P39900 101-268): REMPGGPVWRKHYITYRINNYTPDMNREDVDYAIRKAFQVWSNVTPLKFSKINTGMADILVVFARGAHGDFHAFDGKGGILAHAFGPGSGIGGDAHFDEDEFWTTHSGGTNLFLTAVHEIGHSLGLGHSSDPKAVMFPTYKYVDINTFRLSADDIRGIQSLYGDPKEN
Method: as §1, §2

SMILES: N#Cc1ccc(C2C(O)CCCc3cncn32)c(-c2ccccc2Cl)c1 (stereo not drawn) [CSN5i-1b]
- IC50 [1]: > 100 µM
- IC50 [2]: > 100 µM
- IC50 [3]: > 100 µM
- IC50 [4]: > 100 µM
- IC50 [5]: > 100 µM
- IC50 [6]: 1100 ± 500 nM
- IC50 [7]: > 100 µM
- IC50 [8]: > 100 µM
- IC50 [9]: > 100 µM

Source: paper PMC5078989, “Targeted inhibition of the COP9 signalosome for treatment of cancer” (Nature Communications, 2016)
